Data reported in US20100189648A1, “INHIBITORS FOR DISRUPTING THE INTERACTION OF UBIQUITINATION RELATED ENZYMES AND USES THEREOF” (priority 2006, published 2010).

Columns and labels:
Format in all cases: cell-based, human
SMMC-7721 = experiment: MTT survival assay, liver cancer cell line (SMMC-7721)
Summary of the method: (§1)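 Cells seeded at 3-5×10^4/ml in RPMI1640 or MEM with 10% FBS, treated next day with test articles for 68 h at 37 C in triplicate, then MTT (1 mg/ml) for 4 h. Formazan dissolved in DMSO, read at 570 nm; inhibition vs. untreated control, IC50 by Bliss method.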

A459 = experiment: MTT survival assay, lung cancer cell line (A459); parameters: IC50 (95% confidence level), interval: unit not given beside the values; conditions: for IC50 (95% confidence level), interval: 95% confidence limits of IC50; for IC50 (95% confidence level): Bliss method, unit not printed (concentrations in μg/ml)
Summary of the method: as §1

MCF-7 = experiment: MTT survival assay, breast cancer cell line (MCF-7); parameters: IC50 (95% confidence level), interval: unit not given beside the values
Summary of the method: as §1

HCT116 = experiment: MTT survival assay, colon cancer cell line (HCT116); parameters: IC50 (95% confidence level), interval: unit not given beside the values
Experimental: The effect of the above identified compounds on anti-tumor activity in human carcinoma cells was determined by the MTT survival assay. The MTT assay is a commonly used method in evaluation of cell survival, based on the ability of viable cells to convert MTT (MTT, Sigma, Cat No. 044K5307), a soluble tetrazolium salt [3-(4,5-dimethylthuazole-2-yl)-2,5 diphenyl tetrazolium bromide], into an insoluble formazan precipitate, which is quantitated by spectrophotometry following solubilization in dimethyl sulfoxide (DMSO).
In brief, different carcinoma cells were treated with negative control, various test articles at different concentration, and positive control (DDP), in 96-well tissue culture dishes. Each test article at different concentration is repeated 3 times.
Different carcinoma cells were diluted with 10% FBS and RPM1640 or MEM media to a concentration of 3-5×10^4 per ml suspension. 100 microliter of cells were incubated in each well in 96-well tissue culture dishes at 37 C. The cells were incubated at 37 C on the first day. On the second day, media supernatant was removed and replaced with media and different concentration of test articles (100 microliter in each well). Three Negative control wells and three positive control (DDP) wells were also included. The 96-well plate were incubated at 37 C for another 68 hours. After 68 hours, supernatant of each well was removed. 100 microliter of 1 mg/ml MTT diluted in PBS was injected into each well. The cells were incubated at 37 C for another 4 hours. The cells were then solubilized in 150 microliter DMSO, mixed for 10 minutes and absorbance readings were taken using Microplate reader Bio-Rad Model 550 at 570 nm. IR (cell growth inhibition rate) % was calculated as (OD570 of negative control-OD570 with test article)/OD570 of negative control. IC50 (cell 50% inhibition concentration) at 95% confidence level was calculated with Bliss method.

SKOV3 = experiment: MTT survival assay, ovarian cancer cell line (SKOV3); conditions: for IC50 (95% confidence level): Bliss method, unit not printed (concentrations in μg/ml)
Summary of the method: as §1

Hela cells = experiment: MTT survival assay, cervical cancer line (Hela cells); parameters: IC50 (95% confidence level), interval: unit not given beside the values
Summary of the method: as §1

U251 = experiment: MTT survival assay, glioma cell line (brain tumor U251); conditions: for IC50 (95% confidence level): Bliss method, unit not printed (concentrations in μg/ml)
Summary of the method: as §1

[1] = SMMC-7721 Experiment #2, 0.25 μg/ml
[2] = SMMC-7721 Experiment #2, 1 μg/ml
[3] = SMMC-7721 Experiment #2, 4 μg/ml
[4] = A459 Experiment #2, 0.0625 μg/ml
[5] = Bliss method, unit not printed (concentrations in μg/ml)
[6] = SKOV3 (first table), 0.0625 μg/ml
[7] = SKOV3 (first table), 0.25 μg/ml
[8] = SKOV3 (second table), 0.0625 μg/ml
[9] = SKOV3 (second table), 0.25 μg/ml
[10] = U251 (first table), 0.0625 μg/ml
[11] = U251 (second table), 0.0625 μg/ml
[12] = U251 (second table), 0.25 μg/ml

## N.N.[Cl][Pt][Cl] [DDP, cisplatin, reference compound]
SMMC-7721; SMMC-7721, 0.0625 μg/ml
  IR (%): −29.4%
  OD(A570 nm): 0.570 ± 0.166
SMMC-7721; SMMC-7721, 0.25 μg/ml
  IR (%): 46.2%
  OD(A570 nm): 0.237 ± 0.020
SMMC-7721; SMMC-7721, 1 μg/ml
  IR (%): 71.0%
  OD(A570 nm): 0.128 ± 0.011
SMMC-7721; SMMC-7721, 4 μg/ml
  IR (%): 61.6%
  OD(A570 nm): 0.169 ± 0.022
SMMC-7721; [1]
  IR (%): 24.5%
  OD(A570 nm): 0.348 ± 0.045
SMMC-7721; [2]
  IR (%): 43.1%
  OD(A570 nm): 0.262 ± 0.020
SMMC-7721; [3]
  IR (%): 47.0%
  OD(A570 nm): 0.244 ± 0.155
SMMC-7721; SMMC-7721 Experiment #2, 95% confidence limits of IC50
  IC50 (95% confidence level), interval: 3.757-4.640
SMMC-7721; SMMC-7721 Experiment #2, Bliss method, unit not printed (concentrations in μg/ml)
  IC50 (95% confidence level): 4.155
A459; A459, 0.0625 μg/ml
  IR (%): 23.9%
  OD(A570 nm): 0.485 ± 0.046
A459; A459, 0.25 μg/ml
  IR (%): 18.8%
  OD(A570 nm): 0.517 ± 0.073
A459; A459, 1 μg/ml
  IR (%): 46.4%
  OD(A570 nm): 0.341 ± 0.060
A459; A459, 4 μg/ml
  IR (%): 71.0%
A459; A459
  IC50 (95% confidence level), interval: 1.113-1.213
  IC50 (95% confidence level): 1.162
A459; [4]
  IR (%): 23.9%
  OD(A570 nm): 0.485 ± 0.046
A459; A459 Experiment #2, 0.25 μg/ml
  IR (%): 18.8%
  OD(A570 nm): 0.517 ± 0.073
A459; A459 Experiment #2, 1 μg/ml
  IR (%): 46.4%
  OD(A570 nm): 0.341 ± 0.060
A459; A459 Experiment #2, 4 μg/ml
  IR (%): 71.0%
A459; A459 Experiment #2
  IC50 (95% confidence level), interval: 1.114-1.213
  IC50 (95% confidence level): 1.162
MCF-7; 0.0625 μg/ml
  IR (%): 12.8%
  OD(A570 nm): 0.787 ± 0.005
MCF-7; 0.25 μg/ml
  IR (%): 2.6%
  OD(A570 nm): 0.879 ± 0.059
MCF-7; 1 μg/ml
  IR (%): 83.3%
  OD(A570 nm): 0.151 ± 0.011
MCF-7; 4 μg/ml
  IR (%): 88.2%
  OD(A570 nm): 0.107 ± 0.007
MCF-7; 95% confidence limits of IC50
  IC50 (95% confidence level), interval: 0.483-0.737
MCF-7; [5]
  IC50 (95% confidence level): 0.596
HCT116; 0.25 μg/ml
  IR (%): 51.0%
  OD(A570 nm): 0.266 ± 0.016
HCT116; 1 μg/ml
  IR (%): 62.9%
  OD(A570 nm): 0.201 ± 0.060
HCT116; 4 μg/ml
  IR (%): 75.5%
  OD(A570 nm): 0.133 ± 0.016
HCT116; 95% confidence limits of IC50
  IC50 (95% confidence level), interval: 0.211-0.257
HCT116; [5]
  IC50 (95% confidence level): 0.234
SKOV3; [6]
  IR (%): 1.6%
  OD(A570 nm): 0.689 ± 0.065
SKOV3; [7]
  IR (%): 8.3%
  OD(A570 nm): 0.643 ± 0.141
SKOV3; SKOV3 (first table), 1 μg/ml
  IR (%): 62.0%
  OD(A570 nm): 0.267 ± 0.044
SKOV3; SKOV3 (first table), 4 μg/ml
  IR (%): 88.2%
  OD(A570 nm): 0.083 ± 0.002
SKOV3; SKOV3 (first table)
  IC50 (95% confidence level): 0.89
SKOV3; [8]
  IR (%): 1.6%
  OD(A570 nm): 0.689 ± 0.065
SKOV3; [9]
  IR (%): 8.3%
  OD(A570 nm): 0.643 ± 0.141
SKOV3; SKOV3 (second table), 1 μg/ml
  IR (%): 62.0%
  OD(A570 nm): 0.267 ± 0.044
SKOV3; SKOV3 (second table), 4 μg/ml
  IR (%): 88.2%
  OD(A570 nm): 0.083 ± 0.002
SKOV3; SKOV3 (second table)
  IC50 (95% confidence level): 0.89
Hela cells; 0.0625 μg/ml
  IR (%): 35.3%
  OD(A570 nm): 0.481 ± 0.081
Hela cells; 0.25 μg/ml
  IR (%): 72.2%
  OD(A570 nm): 0.206 ± 0.014
Hela cells; 1 μg/ml
  IR (%): 83.4%
  OD(A570 nm): 0.123 ± 0.007
Hela cells; 4 μg/ml
  IR (%): 89.5%
  OD(A570 nm): 0.078 ± 0.001
Hela cells; 95% confidence limits of IC50
  IC50 (95% confidence level), interval: 0.062-0.156
Hela cells; [5]
  IC50 (95% confidence level): 0.105
U251; [10]
  IR (%): 16.8%
  OD(A570 nm): 0.729 ± 0.090
U251; U251 (first table), 0.25 μg/ml
  IR (%): 21.5%
  OD(A570 nm): 0.688 ± 0.035
U251; U251 (first table), 1 μg/ml
  IR (%): 58.4%
  OD(A570 nm): 0.365 ± 0.058
U251; U251 (first table), 4 μg/ml
  IR (%): 80.2%
  OD(A570 nm): 0.174 ± 0.009
U251; U251 (first table)
  IC50 (95% confidence level): 1.13
U251; [11]
  IR (%): 16.8%
  OD(A570 nm): 0.729 ± 0.090
U251; [12]
  IR (%): 21.5%
  OD(A570 nm): 0.688 ± 0.035
U251; U251 (second table), 1 μg/ml
  IR (%): 58.4%
  OD(A570 nm): 0.365 ± 0.058
U251; U251 (second table), 4 μg/ml
  IR (%): 80.2%
  OD(A570 nm): 0.174 ± 0.009
U251; U251 (second table)
  IC50 (95% confidence level): 1.13
